Where a name gives a salt, the structure may show the parent alone.

For test [1], the target named is T1, KRAS(G12D)/SOS1 (Homo sapiens, UniProt P01116, G12D).
T1 construct: purchased Cisbio 63ADK000CB16PEG
As to the kind of experiment: KRAS(G12D)/SOS1 homogeneous time-resolved fluorescence (HTRF) assay. The format is binding. As to conditions: absence of GTP, 4° C. for 3 hr. As for the experimental part:
The test compound was mixed and incubated with reaction components, incubated in a sealed plate at 4° C. for 3 hr and fluorescence was measured using a PerkinElmer Envision plate reader.
On the technique in general: In TR-FRET formats the signal depends on donor and acceptor labels being close together.

Test [2] relates to A-427 human lung carcinoma. The test can be described thus: CellTiter-Glo cancer cell line proliferation assay, A-427. The format is cell-based. The following applies: Homo sapiens, A-427, 24 hr, read-out: A427 at 24 hrs, IC50. The essentials: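 Cells plated at 4,000/well, grown 24 h at 37 °C/5% CO2, then exposed to compound concentration series (0.5% DMSO final) for 24 h. Viability read by CellTiter-Glo luminescence; IC50 values calculated.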

For test [3], the target named is BA/F3-KRAS(G12D) murine pro-B cell line stably expressing KRAS(G12D) (Homo sapiens, UniProt P01116, G12D, cells depend on it). The test can be described thus: CellTiter-Glo cancer cell line proliferation assay, BA/F3-KRAS(G12D). The format is cell-based. The following applies: 24 hr, read-out: BAF3 at 24 hrs, IC50. The procedure: The following cancer cell lines were employed: AsPC-1 human pancreatic adenocarcinoma (ATCC, #CRL-1682); A-427 human lung carcinoma (ATCC, #HTB-53); BA/F3-KRAS(G12D) murine pro-B cell line stably expressing KRAS(G12D) (Precedo, Hefei, China). Cell lines were cultured according to ATCC and recommendations. BA/F3-KRAS(G12D) cells were cultured in RPMI 1640 media with 10% fetal calf serum, 100 units/mL penicillin and […] streptomycin, and 1% glutamine.
Chain of BA/F3-KRAS(G12D) murine pro-B cell line stably expressing KRAS(G12D) (P01116 whole entry G12D): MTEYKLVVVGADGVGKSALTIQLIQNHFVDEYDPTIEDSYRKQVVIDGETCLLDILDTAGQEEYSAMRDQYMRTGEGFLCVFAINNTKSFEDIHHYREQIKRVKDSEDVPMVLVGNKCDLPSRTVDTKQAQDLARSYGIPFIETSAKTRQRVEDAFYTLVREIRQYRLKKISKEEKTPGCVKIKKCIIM
CellTiter-Glo® Reagent Cancer Cell Line Proliferation Assays
Cells were plated in 96-well tissue culture plates at 4,000 cells/well and incubated at 37° C./5% CO2 for 24 hr in 100 μl of media. 3-fold serial dilutions of each test compound were prepared ranging from 20 μM to 1.02 nM. Cells were then treated with test compounds at various concentrations with a final concentration of 0.5% DMSO/well, and then incubated at 37° C./5% CO2 for 24 hr. 100 μl of CellTiter-Glo® Reagent (Promega Corporation, Madison, WI) was added to each well and processed according manufacturer's protocol. Results were analyzed and IC50-values were calculated in GraphPad 7 software.
Background: ATP-based viability assays read luminescence as a measure of living cells.

T1 sequence (P01116 1-188 isoform P01116-2 G12D): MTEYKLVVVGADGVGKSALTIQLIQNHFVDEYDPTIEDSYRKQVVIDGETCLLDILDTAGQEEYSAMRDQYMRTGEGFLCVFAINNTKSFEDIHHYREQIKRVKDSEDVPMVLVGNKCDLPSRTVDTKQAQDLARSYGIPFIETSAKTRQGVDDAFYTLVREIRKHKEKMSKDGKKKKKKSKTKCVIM

On to `C#Cc1cccc2cccc(-c3ncc4c(N5CC6CCC(C5)N6)nc(OCCC5CCN(CC6CCN(c7cccc8c7C(=O)N(C7CCC(=O)NC7=O)C8=O)CC6)CC5)nc4c3F)c12` (centres unmarked) [Compound 3, 4-(4-((4-(2-((4-(3,8-diazabicyclo[3.2.1]octan-3-yl)-7-(8-ethynylnaphthalen-1-yl)-8-fluoropyrido[4,3-d]pyrimidin-2-yl)oxy)ethyl)piperidin-1-yl)methyl)piperidin-1-yl)-2-(2,6-dioxopiperidin-3-yl)isoindoline-1,3-dione hydrochloride], for which the figures for the IC50 in test [1] and in test [2] were < 100 nM and > 1000 nM, respectively. Besides, the GI50 in test [3] fell in the range of 100 to 1000 nM.
For `C#Cc1cccc2cccc(-c3ncc4c(N5CC6CCC(C5)N6)nc(OCCN5CCN(C(=O)C6CCN(c7ccc8c(c7)C(=O)N(C7CCC(=O)NC7=O)C8=O)CC6)CC5)nc4c3F)c12` (centres unmarked) [Compound 4, 5-(4-(4-(2-((4-(3,8-diazabicyclo[3.2.1]octan-3-yl)-7-(8-ethynylnaphthalen-1-yl)-8-fluoropyrido[4,3-d]pyrimidin-2-yl)oxy)ethyl)piperazine-1-carbonyl)piperidin-1-yl)-2-(2,6-dioxopiperidin-3-yl)isoindoline-1,3-dione formate] the same measures were > 1000 nM, > 1000 nM and > 1000 nM.
For `C#Cc1cccc2cccc(-c3ncc4c(N5CC6CCC(C5)N6)nc(OC[C@@H]5CC[C@H](CN6CCN(C(=O)C7CCN(c8ccc9c(c8)C(=O)N(C8CCC(=O)NC8=O)C9=O)CC7)CC6)N5C)nc4c3F)c12` (stereo partly drawn) [Compound 16, 5-(4-(4-(((2R,5S)-5-(((4-(3,8-diazabicyclo[3.2.1]octan-3-yl)-7-(8-ethynylnaphthalen-1-yl)-8-fluoropyrido[4,3-d]pyrimidin-2-yl)oxy)methyl)-1-methylpyrrolidin-2-yl)methyl)piperazine-1-carbonyl)piperidin-1-yl)-2-(2,6-dioxopiperidin-3-yl)isoindoline-1,3-dione hydrochloride] the same measures were < 100 nM, > 1000 nM and > 1000 nM.
For the molecule `Cc1ncsc1-c1ccc(CNC(=O)C2CC(O)CN2C(=O)C(NC(=O)C2CCN([C@H]3C[C@@H](COc4nc(N5CC6CCC(C5)N6)c5cnc(-c6cccc7cccc(Cl)c67)cc5n4)N(C)C3)CC2)C(C)(C)C)cc1` (stereo in doubt) [Compound 20, 1-[(3S,5S)-5-({[7-(8-chloronaphthalen-1-yl)-4-{3,8-diazabicyclo[3.2.1]octan-3-yl}pyrido[4,3-d]pyrimidin-2-yl]oxy}methyl)-1-methylpyrrolidin-3-yl]-N-[(2S)-1-[(2 S,4R)-4-hydroxy-2-({[4-(4-methyl-1,3-thiazol-5-yl)phenyl]methyl}carbamoyl)pyrrolidin-1-yl]-3,3-dimethyl-1-oxobutan-2-yl]piperidine-4-carboxamide], the IC50 in test [1] was > 1000 nM. Moreover, the GI50 in test [3] is > 1000 nM.
With `C#Cc1cccc2cccc(-c3ncc4c(N5CC6CCC(C5)N6)nc(OCCN5CCN(CC6CCN(c7ccc8c(c7)C(=O)N(C7CCC(=O)NC7=O)C8=O)CC6)CC5)nc4c3F)c12` (centres unmarked) [Compound 1, 5-(4-((4-(2-((4-(3,8-diazabicyclo[3.2.1]octan-3-yl)-7-(8-ethynylnaphthalen-1-yl)-8-fluoropyrido[4,3-d]pyrimidin-2-yl)oxy)ethyl)piperazin-1-yl)methyl)piperidin-1-yl)-2-(2,6-dioxopiperidin-3-yl)isoindoline-1,3-dione hydrochloride], the IC50 in test [1] is 100 to 1000 nM; in test [2], > 1000 nM. Also, in test [3], the GI50 is > 1000 nM.

In general, IC50 refers to the concentration that inhibits the measured activity by half.

These data come from patent publication US20250018047A1, “METHODS AND COMPOSITIONS FOR TARGETED PROTEIN DEGRADATION” (Ranok Therapeutics (Hangzhou) Co. Ltd., priority 2021, published 2025).
